Data set [1] concerns MCF-7 cells. Briefly: Cell viability assay (MTT/AlamarBlue), antiproliferative activity. In kind it is cell-based, human. To be noted: for IC50: Homo sapiens, MCF7, 72 h, read-out: IC50 (MCF-7, 72 h). The text has this: […]. The introduction of the halogen substituent at C-3 was examined in an effort to investigate the effect on the activity of this substituent, and subsequently optimising the cytotoxic effects against MCF-7 human breast cancer cells.
The human breast carcinoma cell line MCF-7 was purchased from the European Collection of Animal Cell Cultures (ECACC). Triple negative breast cancer Hs578T cells and its invasive variant Hs578Ts(i)8 were a kind gift from Dr. Susan McDonnell, School of Chemical and Bioprocess Engineering, University College Dublin. U266 cells were a gift from Dr. Tony McElligott, School of Medicine, St James’s Hospital, Trinity College Dublin. HT-29 cells were purchased from the European Collection of Cell Cultures (originating from a human adenocarcinoma of the colon). The human breast carcinoma cell line MDA-MB-231 and the HL-60 cells derived from a patient with acute myeloid leukaemia were both obtained from ECACC (Salisbury, UK). The SW-480 cells were a kind gift from Dr. Brian Flood, School of Biochemistry and Immunology, Trinity College Dublin. HEK-293T (normal epithelial embryonic kidney cells) were cultured in Dulbecco’s Modified Eagle’s Medium (DMEM) with GlutaMAXTM-I in the absence of non-essential amino acids. Human breast cancer MCF-7 cells and multiple myeloma U266 cells were cultured in Minimum Essential Media (MEM) with GlutaMAX™-I, supplemented with 1% (v/v) non-essential amino acids, 10% 2(v/v) foetal bovine serum (FBS) and 1% (v/v) penicillin/streptomycin 5000 U/mL. MDA-MB-231 cells were maintained in DMEM supplemented with 10% (v/v) foetal bovine serum, 2 mM L-glutamine and 100 μg/mL penicillin/streptomycin (complete medium). Colon cancer HT-29 and SW-480 and triple negative breast cancer Hs578T and its invasive variant Hs578T8i were cultured in DMEM with GlutaMAX™-I, with the same supplement in the absence of non-essential amino acids. Leukaemia HL-60 cancer cells were cultured in Roswell Park Memorial Institute Media (RPMI-1640) with GlutaMAX™-I, supplemented with 10% FCS media, and 100 μg/mL penicillin/streptomycin as above. Cell numbers were monitored using a haemocytometer. Cell culture flasks were incubated in a humidified incubator (5% CO2/95% air) at 37 °C. All cell lines were sub-cultured three times per week with trypsinisation using TrypLE Express (1X) required for adherent cell lines.
. All stock solutions and serial dilution in ethanol/DMSO were stored at -20 °C. All cells were seeded at a density of 2.5 × 10^4 cells/mL in a 96-well plate (200 μL per well). The cells were incubated in a […] atmosphere at 37 °C for 24 h, then treated with test compound (2 μL of stock solutions per 200-microlitre well) in ethanol to obtain a concentration range of 1 nM–200 μM for the study. The plates were then re-incubated for a further 72 h. Control wells contained an equivalent volume of the vehicle ethanol or DMSO (1% v/v). MTT cell viability assay: The culture medium was removed, and the cells were washed with phosphate buffered saline (PBS, […]). MTT (dissolved in PBS, […]) was added to obtain a final concentration of MTT (1 mg/mL). Cells were incubated at 37 °C for 3 h in the dark. Solubilisation was commenced by the addition of DMSO ([…]) and the cells were maintained at 20 °C in the dark for 20 min before reading the absorbance to ensure complete colour diffusion. The absorbance value of control cells (no added compound) was set to 100% cell viability and absorbance versus cell density per well was determined to assess cell viability using Graph-Pad Prism software. AlamarBlue cell viability assay: Cells were seeded in 96-well plates (e.g., MCF-7, 5 × 10^3 cells/well) and (HT-29 cells, 1 × 10^3 cells/well) and (HL-60 cells, 1 × 10^4 cells/well) with a total volume per well of 200 µL. After 24 h, cells were treated in triplicate with serial dilutions of CA-4 or β-lactam analogues (0.001–100 μM), medium alone or vehicle (1% ethanol (v/v)). […]

Where two headings read alike, the source gives them in different places. Marks after values point to notes of the source that are not given here.

This note sets out measurements from publication PMC8624998, “Synthesis and Antiproliferative Evaluation of 3-Chloroazetidin-2-ones with Antimitotic Activity: Heterocyclic Bridged Analogues of Combretastatin A-4” (Pharmaceuticals, 2021).

The term IC50 denotes the concentration that gives 50% inhibition. Regarding `COc1ccc([C@@H]2[C@H](Cl)C(=O)N2c2cc(OC)c(OC)c(OC)c2)cc1` (relative stereo) [Compound 10e cis, Cis-3-chloro-1-(3,4,5-trimethoxyphenyl)-4-(4-methoxyphenyl) azetidin-2-one], the IC50 in data set [1] (MCF-7, 72 h) was 0.317 ± 0.04 µM.

For `COc1cc(N2C(=O)C(Cl)C2c2ccccc2)cc(OC)c1OC` (stereo not drawn) [Compound 10a, 3-Chloro-1-(3,4,5-trimethoxyphenyl)-4-phenylazetidin-2-one], in data set [1] (MCF-7, 72 h), the IC50 is 23.4 ± 2.8 µM.

Regarding `COc1cc(N2C(=O)C(Cl)C2c2ccc(Cl)cc2)cc(OC)c1OC` (stereo not drawn) [Compound 10b, 3-Chloro-4-(4-chlorophenyl)-1-(3,4,5-trimethoxyphenyl)azetidin-2-one], in data set [1] (MCF-7, 72 h), the IC50 is 1.3 ± 0.17 µM.

Turning to `COc1cc(N2C(=O)C(Cl)C2c2ccc(Br)cc2)cc(OC)c1OC` (stereo not drawn) [Compound 10c, 4-(4-Bromophenyl)-3-chloro-1-(3,4,5-trimethoxyphenyl)azetidin-2-one], in data set [1] (MCF-7, 72 h), the IC50 was determined as 0.506 ± 0.11 µM.

For `COc1cc(N2C(=O)C(Cl)C2c2ccc([N+](=O)[O-])cc2)cc(OC)c1OC` (stereo not drawn) [Compound 10d, 3-Chloro-1-(3,4,5-trimethoxyphenyl)-4-(4-nitrophenyl)azetidin-2-one], the IC50 in data set [1] (MCF-7, 72 h) was 4.37 ± 0.61 µM.

On to `COc1cc(N2C(=O)C(Cl)C2c2ccc(Oc3ccccc3)cc2)cc(OC)c1OC` (stereo not drawn) [Compound 10g, 3-Chloro-1-(3,4,5-trimethoxyphenyl)-4-(4-phenoxyphenyl)azetidin-2-one], for which the IC50 in data set [1] (MCF-7, 72 h) came to 64.1 ± 7.3 µM.

For orientation: melting point means the temperature of the solid-liquid transition. Regarding `COc1cc(N2C(=O)C(Cl)C2c2ccc(OCc3ccccc3)cc2)cc(OC)c1OC` (stereo not drawn) [Compound 10h, 4-(4-Benzyloxyphenyl)-3-chloro-1-(3,4,5-trimethoxyphenyl)azetidin-2-one], the melting point is 96 to 98 °C. Moreover, the IC50 in data set [1] (MCF-7, 72 h) came out at 59.9 ± 6.99 µM.

As for `COc1ccc(C2C(Cl)C(=O)N2c2cc(OC)c(OC)c(OC)c2)cc1[N+](=O)[O-]` (stereo not drawn) [Compound 10m, 3-Chloro-4-(4-methoxy-3-nitrophenyl)-1-(3,4,5-trimethoxyphenyl) azetidin-2-one], the melting point is 93 to 95 °C. In addition, the IC50 in data set [1] (MCF-7, 72 h) worked out at 3.09 ± 0.41 µM.

`COc1cc(N2C(=O)C(Cl)(Cl)C2c2ccccc2)cc(OC)c1OC` (stereo not drawn) [Compound 11a, 3,3-Dichloro-1-(3,4,5-trimethoxyphenyl)-4-phenylazetidin-2-one]: the melting point lay within 80 to 81 °C. Besides, the IC50 in data set [1] (MCF-7, 72 h) is 37.2 ± 3.21 µM.

In the case of `COc1cc(N2C(=O)C(Cl)(Cl)C2c2ccc(Cl)cc2)cc(OC)c1OC` (stereo not drawn) [Compound 11b, 3,3-Dichloro-4-(4-chlorophenyl)-1-(3,4,5-trimethoxyphenyl)azetidin-2-one], the melting point lay within 150 to 153 °C. Moreover, in data set [1] (MCF-7, 72 h), the IC50 is 12.8 ± 1.08 µM.

Compound `COc1cc(N2C(=O)C(Cl)(Cl)C2c2ccc(Br)cc2)cc(OC)c1OC` (stereo not drawn) [Compound 11c, 4-(4-Bromophenyl)-3,3-dichloro-1-(3,4,5-trimethoxyphenyl)azetidin-2-one] registered a melting point of 150 to 152 °C. Besides, the IC50 in data set [1] (MCF-7, 72 h) amounted to 18.2 ± 1.83 µM.

`COc1cc(N2C(=O)C(Cl)(Cl)C2c2ccc([N+](=O)[O-])cc2)cc(OC)c1OC` (stereo not drawn) [Compound 11d, 3,3-Dichloro-1-(3,4,5-trimethoxyphenyl)-4-(4-nitrophenyl)azetidin-2-one] displayed a melting point of 116 to 118 °C. Further, the IC50 in data set [1] (MCF-7, 72 h) was determined as 61.6 ± 7.61 µM.

Compound `COc1cc(N2C(=O)C(Cl)(Cl)C2c2ccc(Oc3ccccc3)cc2)cc(OC)c1OC` (stereo not drawn) [Compound 11g, 3,3-Dichloro-1-(3,4,5-trimethoxyphenyl)-4-(4-phenoxyphenyl)azetidin-2-one] returned a melting point of 82 to 84 °C. In addition, in data set [1] (MCF-7, 72 h), the IC50 is 62.3 ± 10.2 µM.

On to `COc1cc(N2C(=O)C(Cl)(Cl)C2c2ccc(OCc3ccccc3)cc2)cc(OC)c1OC` (stereo not drawn) [Compound 11h, 4-(4-Benzyloxyphenyl)-3,3-dichloro-1-(3,4,5-trimethoxyphenyl) azetidin-2-one], for which, in data set [1] (MCF-7, 72 h), the IC50 is 36.3 ± 3.68 µM.

`COc1cc(N2C(=O)C(Cl)(Cl)C2c2cccc3ccccc23)cc(OC)c1OC` (stereo not drawn) [Compound 11j, 3,3-Dichloro-1-(3,4,5-trimethoxyphenyl)-4-(naphthalen-1-yl)azetidin-2-one] showed a melting point of 146 to 148 °C. For the same compound, in data set [1] (MCF-7, 72 h), the IC50 is 7.99 ± 0.7 µM.

On to `COc1cc(N2C(=O)C(Cl)(Cl)C2c2ccc3ccccc3c2)cc(OC)c1OC` (stereo not drawn) [Compound 11k, 3,3-Dichloro-1-(3,4,5-trimethoxyphenyl)-4-(naphthalen-2-yl)azetidin-2-one], for which the melting point was 164 to 166 °C. In data set [1] (MCF-7, 72 h), the IC50 worked out at 0.322 ± 0.04 µM.

In the case of `COc1ccc(C2N(c3cc(OC)c(OC)c(OC)c3)C(=O)C2(Cl)Cl)cc1[N+](=O)[O-]` (stereo not drawn) [Compound 11m, 3,3-Dichloro-4-(4-methoxy-3-nitrophenyl)-1-(3,4,5-trimethoxyphenyl) azetidin-2-one], the melting point was 117 to 119 °C. The IC50 in data set [1] (MCF-7, 72 h) was found to be 0.353 ± 0.04 µM.

Turning to `COc1ccc(N2C(=O)C(Cl)C2c2cc(OC)c(OC)c(OC)c2)cc1` (stereo not drawn) [Compound 12a, 3-Chloro-1-(4-methoxyphenyl)-4-(3,4,5-trimethoxyphenyl)azetidin-2-one], the melting point was 101 to 102 °C. For the same compound, the IC50 in data set [1] (MCF-7, 72 h) turned out to be 14.8 ± 1.58 µM.

On to `CCOc1ccc(N2C(=O)C(Cl)C2c2cc(OC)c(OC)c(OC)c2)cc1` (stereo not drawn) [Compound 12b, 3-Chloro-1-(4-ethoxyphenyl)-4-(3,4,5-trimethoxyphenyl)azetidin-2-one], for which the melting point fell in the range of 113 to 115 °C. For the same compound, the “inhibition of cell viability at a concentration of 10 μM” value in data set [1] (MCF-7, 72 h, 10 μM) is recorded as 25% (10 μM) ^c.

For the compound `COc1ccc(C2N(c3cc(OC)cc(OC)c3)C(=O)C2(Cl)Cl)cc1` (stereo not drawn) [Compound 15a, 3,3-Dichloro-1-(3,5-dimethoxyphenyl)-4-(4-methoxyphenyl)azetidin-2-one], the IC50 in data set [1] (MCF-7, 72 h) turned out to be 6.61 ± 2 µM.

In the case of `CCOc1ccc(C2N(c3cc(OC)cc(OC)c3)C(=O)C2(Cl)Cl)cc1` (stereo not drawn) [Compound 15b, 3,3-Dichloro-1-(3,5-dimethoxyphenyl)-4-(4-ethoxyphenyl)azetidin-2-one], in data set [1] (MCF-7, 72 h), the IC50 is 0.273 ± 0.01 µM.

On to `COc1cc(N2C(=O)C(Br)C2c2ccc(SC)cc2)cc(OC)c1OC` (stereo not drawn) [Compound 16c, 3-Bromo-4-(4-(methylthio)phenyl)-1-(3,4,5-trimethoxyphenyl)azetidin-2-one], for which the IC50 in data set [1] (MCF-7, 72 h) is 0.613 ± 0.04 µM.

With `COc1ccc(C2C(Br)C(=O)N2c2cc(OC)c(OC)c(OC)c2)cc1C` (stereo not drawn) [Compound 16e, 3-Bromo-4-(4-methoxy-3-methylphenyl)-1-(3,4,5-trimethoxyphenyl) azetidin-2-one], the IC50 in data set [1] (MCF-7, 72 h) was 0.525 ± 0.03 µM.

For the compound `COc1ccc(C2C(Br)C(=O)N2c2cc(OC)c(OC)c(OC)c2)cc1F` (stereo not drawn) [Compound 16f, 3-Bromo-4-(3-fluoro-4-methoxyphenyl)-1-(3,4,5-trimethoxyphenyl) azetidin-2-one], in data set [1] (MCF-7, 72 h), the IC50 came out at 0.39 ± 0.03 µM.

Take `COc1ccc(C2C(Br)C(=O)N2c2cc(OC)c(OC)c(OC)c2)cc1Cl` (stereo not drawn) [Compound 16g, 3-Bromo-4-(3-chloro-4-methoxyphenyl)-1-(3,4,5-trimethoxyphenyl) azetidin-2-one]: the IC50 in data set [1] (MCF-7, 72 h) came to 0.472 ± 0.2 µM.

With `COc1ccc(C2C(Br)C(=O)N2c2cc(OC)c(OC)c(OC)c2)cc1Br` (stereo not drawn) [Compound 16h, 3-Bromo-4-(3-bromo-4-methoxyphenyl)-1-(3,4,5-trimethoxyphenyl) azetidin-2-one], the IC50 in data set [1] (MCF-7, 72 h) is 0.62 ± 0.04 µM.

On to `COc1ccc(C2N(c3cc(OC)c(OC)c(OC)c3)C(=O)C2(Cl)Cl)cc1OP(=O)(O)O` (stereo not drawn) [Compound 18, 5-(3,3-Dichloro-1-(3,4,5-trimethoxyphenyl)-4-oxoazetidin-2-yl)-2-methoxyphenyl dihydrogen phosphate], for which, in data set [1], the IC50 was found to be 0.077 ± 0.01 µM.
